A value given as a limit tells only on which side of the number the result lay.

The experiment concerns the target T1, Pteridine reductase (Trypanosoma brucei brucei, UniProt O76290).
T1 sequence (O76290 whole entry): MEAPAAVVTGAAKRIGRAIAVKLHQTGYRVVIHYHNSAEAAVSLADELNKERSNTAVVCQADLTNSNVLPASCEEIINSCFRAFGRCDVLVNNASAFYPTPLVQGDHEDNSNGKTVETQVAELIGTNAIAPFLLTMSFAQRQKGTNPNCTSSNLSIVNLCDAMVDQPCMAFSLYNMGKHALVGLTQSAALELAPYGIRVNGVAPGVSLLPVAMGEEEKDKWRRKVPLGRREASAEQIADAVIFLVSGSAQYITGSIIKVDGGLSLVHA
As to the kind of experiment: PTR1 Activity Assay. The conditions noted are these: pH 6; 23 °C. The method, then:
TbPTR1 activity was measured in 96-well microtiter plates via reduction of cytochrome c (cytc) as a result of the enzymatic production of tetrahydrobiopterin (H4B). Enzyme activity was monitored by reading absorbance at 550 nm within the linear phase of reaction. Ki (app) values were calculated using a modified Morrison equation.

As usually defined, the Ki is the equilibrium dissociation constant of an inhibitor or competing ligand from its target. A higher Ki goes with lower affinity. With `CCn1c(N)nc2ccccc21` [2-aminobenzimidazole deriv., 7], the Ki is > 200 µM.

Source of the values: BindingDB's records for doi:10.1021/jm900414x (University of Dundee, 2009).
